Data published in ChEMBL document CHEMBL5241070, “Overview of all-trans-retinoic acid (ATRA) and its analogues: Structures, activities, and mechanisms in acute promyelocytic leukaemia” (Eur J Med Chem, 2021).
Converted amounts (≈) assume the structure as drawn.

Key:
MDA-MB-231 = assay: Antiproliferative activity against human MDA-MB-231 cells assessed as inhibition of cell growth; type: functional, cell-based
Staphylococcus aureus = assay: Antibacterial activity against methicillin-resistant Staphylococcus aureus assessed as bacterial growth inhibition; type: functional
ME-180 [1] = assay: Antiproliferative activity against human ME-180 ells assessed as inhibition of cell growth; type: functional, cell-based
A2780 = assay: Antiproliferative activity against human A2780 cells assessed as inhibition of cell growth measured after 72 hrs by SRB assay; type: functional, cell-based; details: A2780, 72 h
ME-180 [2] = assay: Antiproliferative activity against human ME-180 cells assessed as inhibition of cell growth by [3H]-thymidine incorporation based liquid scintillation counter analysis; type: functional
HL-60 = assay: Antiproliferative activity against human HL-60 cells assessed as cell growth inhibition measured after 72 hrs by trypan blue staining based assay; type: functional
[3] = Antiproliferative activity against human U87MG Human EGFR vIII cells assessed as inhibition of cell growth measured after 24 hrs by MTT assay; type: functional
HT-29 = assay: Antiproliferative activity against human HT-29 cells assessed as inhibition of cell growth measured after 48 hrs by MTT assay; type: functional
MCF7 = assay: Antiproliferative activity in human MCF7 cells assessed as cell growth inhibition measured after 72 hrs by cell counting assay; type: functional
A-375 = assay: Antiproliferative activity against human A-375 cells assessed as inhibition of cell growth measured after 24 hrs by WST-8 assay; type: functional
[4] = Antiproliferative activity against human UM-SCC-38 cells assessed as inhibition of cell growth; type: functional, cell-based
PC-3 = assay: Antiproliferative activity against human PC-3 cells assessed as inhibition of cell growth measured after 24 hrs by MTT assay; type: functional
SCL-1 = assay: Induction of apoptosis in human SCL-1 cells by flow cytometry assay; type: functional; details: read-out: MEC
[5] = Antiproliferative activity against human A2774 cells assessed as inhibition of cell growth measured after 72 hrs by XTT assay; type: functional
Y79 = assay: Antiproliferative activity against human Y79 cells assessed as inhibition of cell growth measured after 72 hrs by MTT assay; type: functional
ME-180 [6] = assay: Antiproliferative activity against human ME-180 cells assessed as inhibition of cell growth; type: functional
MOLM-13 = assay: Antiproliferative activity against human MOLM-13 cells assessed as inhibition of cell growth measured after 96 hrs by WST-8 assay; type: functional
NB-4 = assay: Antiproliferative activity against human NB-4 cells assessed as inhibition of cell growth measured after 96 hrs by MTT assay; type: functional

Q: For CC1=C(/C=C/C(C)=C/C=C/C(C)=C/C(=O)Nc2ccc(F)cc2)C(C)(C)CCC1n1ccnc1 (stereo unspecified), which IC50 (MDA-MB-231) is on record?
A: Its IC50 is 890 nM.

Q: For CCCC(=O)OCc1ccc(OC(=O)/C=C(C)/C=C/C=C(C)/C=C/C2=C(C)CCCC2(C)C)cc1, which GI50 (MDA-MB-231) is on record?
A: Its GI50 is 10 nM.

Q: For O=C(O)c1ccc(-c2ccc3cc(O)c(C45CC6CC(CC(C6)C4)C5)cc3c2)cc1, which MIC (Staphylococcus aureus) is on record?
A: Its MIC is 1 µg/mL (≈ 2.51 µM).

Q: With C/C(=C/C=C/C(C)=C/C(=O)O)c1cc(C(C)(C)C)cc(C(C)(C)C)c1 as the molecule, how does the IC50 (ME-180 [1]) read?
A: The IC50 was 20 nM.

Q: For CC1=C(/C=C/C(C)=C/C=C/C(C)=C/C(=O)Nc2ccc(O)cc2)C(C)(C)CC/C1=N\OCC(=O)O, which IC50 (A2780) is on record?
A: The IC50 was 970 nM.

Q: Which IC50 (ME-180 [2]) does the source give for CC(/C=C/C=C(\C)c1cc(C(C)(C)C)cc(C(C)(C)C)c1)=C\C(=O)O here?
A: The IC50 was 1 nM.

Q: Which MIC (Staphylococcus aureus) does the source give for O=C(O)/C=C/c1ccc(-c2ccc(O)c(C34CC5CC(CC(C5)C3)C4)c2)cc1 [ADAROTENE] here?
A: The MIC was 1 µg/mL (≈ 2.67 µM).

Q: Which MIC (Staphylococcus aureus) does the source give for O=C(O)c1ccc2cc(-c3ccc(O)c(C45CC6CC(CC(C6)C4)C5)c3)ccc2c1 [O-DEMETHYLATED ADAPALENE] here?
A: Its MIC is 1 µg/mL (≈ 2.51 µM).

Q: With CC1=C(/C=C/C(C)=C/C=C/C(C)=C/C(=O)O)C(C)(C)CCC1 [TRETINOIN] as the molecule, how does the CC50 (HL-60) read?
A: Its CC50 is 23 nM.

Q: What about the MCC [3] of the same molecule?
A: The MCC was 40 µM.

Q: What about the CC50 (HT-29) of the same molecule?
A: Its CC50 is 4300 nM.

Q: What about the CC50 (MCF7) of the same molecule?
A: Its CC50 is 20 nM.

Q: And the MCC (A-375)?
A: The MCC was > 100 µM.

Q: What about the IC50 [4] of the same molecule?
A: The IC50 was 5000 nM.

Q: What about the CC50 (PC-3) of the same molecule?
A: The CC50 was 12700 nM.

Q: What about the minimal effective concentration (SCL-1) of the same molecule?
A: The minimal effective concentration was ≤ 10 µM.

Q: What about the CC50 [5] of the same molecule?
A: The CC50 was 82 nM.

Q: What about the MCC (Y79) of the same molecule?
A: The MCC was 2000 nM.

Q: And the CC50 (ME-180 [6])?
A: The CC50 was 80 nM.

Q: What about the CC50 (MOLM-13) of the same molecule?
A: The CC50 was 1240 nM.

Q: And the CC50 (NB-4)?
A: The CC50 was 1500 nM.
